According to US8293774B2, “Optically active (R)-aryloxypropionic acid amides and herbicidal composition comprising same” (Kyung Nong Corporation, priority 2007, dated 2012):

Columns and labels:
[1] = tested on: TRZAW (Tritium aestivum L., wheat); test: Weed control test, foliage treatment (Test Example 1, Table 7); conditions: wheat, foliage treatment
[2] = tested on: ORYSA (Oryza sativa cv. Dongjin, rice); test: as above; conditions: rice, foliage treatment
[3] = tested on: HORVU (Hordeum vulgare L., barley); test: as above; conditions: barley, foliage treatment
[4] = tested on: GLXMA (Glycine max(L.) MERR, soy bean); test: as above; conditions: soy bean, foliage treatment
rice (Nampyung rice) = test: Foliage treatment with emulsions, dry rice field conditions, harmful effect on rice (Test Example 2, Table 9); type: in vivo; conditions: 6~6.5-leaf stage, 150 g a.i./ha, emulsion
Description: (§1) Seeds of rice (Nampyung rice) and barnyard grasses (Echinochloa oryzicola and Echinochloa crus-galli var. crus-galli) were placed in sandy loam of pots, covered with soil, and grown in the dry rice field conditions.

[5] = tested on: SETVIR (Setaria viridis (L.) Beauv, green foxtail); test: Weed control test, foliage treatment (Test Example 1, Table 7); type: in vivo
Outline: (§2)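 Plants are raised from seed in sandy loam in a greenhouse at 20 to 30° C. When barnyard grass reaches the 3-leaf stage, the foliage receives 2,000 l/ha of a diluted emulsion containing compound, acetone and Tween 80. Damage is judged by eye against untreated controls after 10 and 20 days.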

[6] = tested on: ZEAMX (Zea mays L., corn); test: as above; type: in vivo
Outline: as §2

[7] = tested on: ARTHIS (Arthraxon hispidus (Thunb.) Makino, creek grass); test: as above; type: in vivo
Outline: as §2

[8] = tested on: PANDI (Panium dichotomiflorum Michx, fall panicum); test: as above; type: in vivo
Outline: as §2

[9] = tested on: DIGSA (Digitaria Sanguinalis (L.) SCOP, large crabgrass); test: as above; type: in vivo
Outline: as §2

[10] = tested on: SORBI (Andropogon sorghum, common sorgum); test: as above; type: in vivo
Outline: as §2

[11] = tested on: ECHOG (Echinoch crus-galli Beauv. var. caudata Kitagawa, barnyard grass); test: as above; type: in vivo; conditions: 3-leaf stage
Outline: as §2

[12] = tested on: Echinochloa crus-galli var. crus-galli; test: Foliage treatment with emulsions, dry rice field conditions (Test Example 2, Table 9); type: in vivo; conditions: 150 g a.i./ha; emulsion of Formulation Example 3; division stage 1~2; 20 days after foliage treatment
Description: as §1
(§3) Rice (6˜6.5-leaf stage, plant height 33.2 cm) and barnyard grasses (Echinochloa oryzicola: division stage 1˜2, plant height 38.0 cm, Echinochloa crus-galli var. crus-galli: division stage 1˜2, plant height 44.1 cm) were subjected to a foliage treatment with emulsions prepared according to Formulation Example 3 by using compounds of Examples 1, 5 and 13 (purity: 99% or more), wherein the emulsions were sprayed to the plants at a dosage of the active compound of 150 g/ha.
(§4) The herbicidal effect on the barnyard grasses and harmful effect on the rice of the test compounds at 20 days and 30 days after the foliage treatment were visually evaluated as in Test Example 1 in comparison with the untreated control, and the results are shown in Table 9.

Echinochloa oryzicola = test: as above; type: in vivo; conditions: 150 g a.i./ha; emulsion of Formulation Example 3; division stage 1~2; 20 days after foliage treatment
Description: as §1, §3, §4

Barnyard grass = test: Weed control test, 4-leaf stage plants (Test Example 1, Table 8); type: in vivo, Echinoch crus-galli Beauv. var. caudata Kitagawa
Rice = test: as above; conditions: 4-leaf stage
Procedure: Seeds of rice, wheat, soy bean, barley, corn, common sorgum, barnyard grass, large crabgrass, creek grass, green foxtail and fall panicum were placed in sandy loam in 600 cm^2 pots and covered with soil. After keeping the pots in a greenhouse at 20 to 30° C. allowing growth of the plants to the 3-leaf stage of the barnyard grass, 2,000 l/ha of an emulsion obtained by diluting with water a mixture of 1 part by weight of a test compound, 5 parts by weight of acetone and 1 part by weight of an emulsifying agent (Tween 80, Junsei) was applied to the surface of the foliage of the plants. The plant damage at 10 days and 20 days after the foliage treatment was visually evaluated from the level of 1 to 100% by comparison with the untreated control: […]

CCOC(=O)[C@@H](C)Oc1ccc(Oc2nc3ccc(Cl)cc3o2)cc1 [Phenoxaprop-P-ethyl, phenoxaprop-P-ethyl, reference compound]
Plant damage (herbicidal activity), visually evaluated, TRZAW ([1]; 0.025 kg/ha): 0% | Plant damage (herbicidal activity), visually evaluated, TRZAW ([1]; 0.1 kg/ha): 10% | Plant damage (herbicidal activity), visually evaluated, TRZAW ([1]; 0.2 kg/ha): 10% | Plant damage (herbicidal activity), visually evaluated, ORYSA ([2]; 0.025 kg/ha): 0% | Plant damage (herbicidal activity), visually evaluated, ORYSA ([2]; 0.1 kg/ha): 0% | Plant damage (herbicidal activity), visually evaluated, ORYSA ([2]; 0.2 kg/ha): 0% | Plant damage (herbicidal activity), visually evaluated, HORVU ([3]; 0.025 kg/ha): 0% | Plant damage (herbicidal activity), visually evaluated, HORVU ([3]; 0.1 kg/ha): 20% | Plant damage (herbicidal activity), visually evaluated, HORVU ([3]; 0.2 kg/ha): 40% | Plant damage (herbicidal activity), visually evaluated, GLXMA ([4]; 0.025 kg/ha): 0% | Plant damage (herbicidal activity), visually evaluated, GLXMA ([4]; 0.1 kg/ha): 0% | Plant damage (herbicidal activity), visually evaluated, GLXMA ([4]; 0.2 kg/ha): 0% | Harmful effect, 20 days (rice (Nampyung rice); 20 days after foliage treatment): 23% | Harmful effect, 30 days (rice (Nampyung rice); 30 days after foliage treatment): 38% | Plant damage (herbicidal activity), visually evaluated, SETVIR ([5]; 0.025 kg/ha): 20% | Plant damage (herbicidal activity), visually evaluated, SETVIR ([5]; 0.1 kg/ha): 100% | Plant damage (herbicidal activity), visually evaluated, SETVIR ([5]; 0.2 kg/ha): 100% | Plant damage (herbicidal activity), visually evaluated, ZEAMX ([6]; 0.025 kg/ha): 30% | Plant damage (herbicidal activity), visually evaluated, ZEAMX ([6]; 0.1 kg/ha): 100% | Plant damage (herbicidal activity), visually evaluated, ZEAMX ([6]; 0.2 kg/ha): 100% | Plant damage (herbicidal activity), visually evaluated, ARTHIS ([7]; 0.025 kg/ha): 30% | Plant damage (herbicidal activity), visually evaluated, ARTHIS ([7]; 0.1 kg/ha): 100% | Plant damage (herbicidal activity), visually evaluated, ARTHIS ([7]; 0.2 kg/ha): 100% | Plant damage (herbicidal activity), visually evaluated, PANDI ([8]; 0.025 kg/ha): 30% | Plant damage (herbicidal activity), visually evaluated, PANDI ([8]; 0.1 kg/ha): 100% | Plant damage (herbicidal activity), visually evaluated, PANDI ([8]; 0.2 kg/ha): 100% | Plant damage (herbicidal activity), visually evaluated, DIGSA ([9]; 0.025 kg/ha): 40% | Plant damage (herbicidal activity), visually evaluated, DIGSA ([9]; 0.1 kg/ha): 100% | Plant damage (herbicidal activity), visually evaluated, DIGSA ([9]; 0.2 kg/ha): 100% | Plant damage (herbicidal activity), visually evaluated, SORBI ([10]; 0.025 kg/ha): 50% | Plant damage (herbicidal activity), visually evaluated, SORBI ([10]; 0.1 kg/ha): 100% | Plant damage (herbicidal activity), visually evaluated, SORBI ([10]; 0.2 kg/ha): 100% | Plant damage (herbicidal activity), visually evaluated, ECHOG ([11]; 0.025 kg/ha): 30% | Plant damage (herbicidal activity), visually evaluated, ECHOG ([11]; 0.1 kg/ha): 100% | Plant damage (herbicidal activity), visually evaluated, ECHOG ([11]; 0.2 kg/ha): 100% | Herbicidal effect (0~100), 20 days, Echinochloa crus-galli var. crus-galli [12]: 100% | Herbicidal effect (0~100), 20 days, Echinochloa oryzicola (Echinochloa oryzicola): 100% | Plant damage (herbicidal activity), visually evaluated, Barnyard grass (Barnyard grass; 0.025 kg/ha): 90% | Plant damage (herbicidal activity), visually evaluated, Barnyard grass (Barnyard grass; 0.05 kg/ha): 100% | Plant damage (herbicidal activity), visually evaluated, Barnyard grass (Barnyard grass; 0.1 kg/ha): 100% | Plant damage (herbicidal activity), visually evaluated, Barnyard grass (Barnyard grass; 0.4 kg/ha): 100% | Plant damage (herbicidal activity), visually evaluated, Rice (Rice; 0.025 kg/ha): 20% | Plant damage (herbicidal activity), visually evaluated, Rice (Rice; 0.05 kg/ha): 30% | Plant damage (herbicidal activity), visually evaluated, Rice (Rice; 0.1 kg/ha): 70% | Plant damage (herbicidal activity), visually evaluated, Rice (Rice; 0.4 kg/ha): 80%
